Source: patent US8691753B2 (priority 2009, dated 2014)
Like-named read-outs stand apart in the source and are kept apart here.

Legend:
[1] = target: MMP-9h (Homo sapiens (Human), UniProt P14780); test: Inhibition constant (Ki) on MMP-9h; type: biochemical; settings: for Ki: human MMP-9
Procedure, shortened: (§1)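 Compounds are evaluated on human MMPs, and Ki is derived as set out in an earlier publication.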

[2] = target: MMP-3h (Homo sapiens (Human), UniProt P08254); test: Inhibition constant (Ki) on MMP-3h; type: biochemical; settings: for Ki: human MMP-3
Procedure, shortened: as §1

[3] = target: MMP-2h (Homo sapiens (Human), UniProt P08253); test: Inhibition constant (Ki) on MMP-2h; type: biochemical; settings: for Ki: human MMP-2
Procedure, shortened: as §1

[4] = test system: human MMPs; test: Inhibition of the panel of human MMPs (overall statements, selectivity); type: biochemical; settings: for inhibitory activity toward MMPs (in words): summary of table I; for selectivity factor F = Ki MMP-x/Ki MMP-12: other human MMPs versus MMP-12
[5] = target: MMP-13h (Homo sapiens (Human), UniProt P45452); test: Inhibition constant (Ki) on MMP-13h; type: biochemical; settings: for Ki: human MMP-13
Procedure, shortened: as §1

[6] = target: MMP-7h (Homo sapiens (Human), UniProt P09237); test: Inhibition constant (Ki) on MMP-7h; type: biochemical; settings: for Ki: human MMP-7
Text: (§2) The inhibition constant Ki of these compounds has been determined according to the protocol described by Devel et al, 2006, J. Biol. Chem. (7).
(§3) In this table I and also in table II below, “h” corresponds to human. All of the compounds have therefore been evaluated on human MMPs.

[7] = target: MMP-14h (Homo sapiens (Human), UniProt P50281); test: Inhibition constant (Ki) on MMP-14h; type: biochemical; settings: for Ki: human MMP-14
Procedure, shortened: as §1

[8] = target: MMP-8h (Homo sapiens (Human), UniProt P22894); test: Inhibition constant (Ki) on MMP-8h; type: biochemical; settings: for Ki: human MMP-8
[9] = target: MMP-10h (Homo sapiens (Human), UniProt P09238); test: Inhibition constant (Ki) on MMP-10h; type: biochemical; settings: for Ki: human MMP-10
[10] = target: MMP-1h (Homo sapiens (Human), UniProt P03956); test: Inhibition constant (Ki) on MMP-1h; type: biochemical; settings: for Ki: human MMP-1
Text: as §2, §3

[11] = target: T1, MMP-12h (Homo sapiens (Human), UniProt P39900); settings: reported by Devel et al., J. Biol. Chem. 2006; read-out: inhibition constant Ki for human MMP-12; cited from earlier work
[12] = test system: human MMPs; settings: reported by Devel et al., J. Biol. Chem. 2006; cited from earlier work
[13] = target: T1, MMP-12h; test: Inhibition constant (Ki) on MMP-12h; type: biochemical; settings: for Ki: read-out: Ki MMP-12h, human MMP-12
[14] = Stability test in mouse blood; type: in vitro ADME; settings: after 24 hours in mouse blood
Procedure: The loss of 50% of the starting material can be attributed to a phenomenon of nonspecific association of the compound with the wall of the eppendorf. It should be noted that this 50% loss of the compound was also observed after 24 hours for a solution at 10 nM in PBS buffer or in a solution at 1 μM of PBS (Bovine Serum Albumin).

[15] = Determination of the plasma concentration in mice after infusion; settings: mouse, intravenous, 10 mg/kg

MMP-2h, sequence (P08253 110-660): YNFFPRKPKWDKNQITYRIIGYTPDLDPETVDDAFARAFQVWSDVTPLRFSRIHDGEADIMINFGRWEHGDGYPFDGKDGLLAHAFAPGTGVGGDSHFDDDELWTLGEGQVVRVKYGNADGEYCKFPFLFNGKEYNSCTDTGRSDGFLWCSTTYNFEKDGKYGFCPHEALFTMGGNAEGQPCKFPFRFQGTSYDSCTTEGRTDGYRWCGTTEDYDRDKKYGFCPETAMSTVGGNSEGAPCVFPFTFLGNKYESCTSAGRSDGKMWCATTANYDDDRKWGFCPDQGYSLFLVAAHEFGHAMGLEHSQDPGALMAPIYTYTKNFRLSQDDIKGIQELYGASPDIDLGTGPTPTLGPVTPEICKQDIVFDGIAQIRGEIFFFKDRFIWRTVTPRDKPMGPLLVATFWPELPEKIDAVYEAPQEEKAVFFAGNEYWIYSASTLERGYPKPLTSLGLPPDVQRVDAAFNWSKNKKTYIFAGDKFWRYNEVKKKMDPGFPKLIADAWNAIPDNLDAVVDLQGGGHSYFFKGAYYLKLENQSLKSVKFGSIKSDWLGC
MMP-7h, sequence (P09237 95-267): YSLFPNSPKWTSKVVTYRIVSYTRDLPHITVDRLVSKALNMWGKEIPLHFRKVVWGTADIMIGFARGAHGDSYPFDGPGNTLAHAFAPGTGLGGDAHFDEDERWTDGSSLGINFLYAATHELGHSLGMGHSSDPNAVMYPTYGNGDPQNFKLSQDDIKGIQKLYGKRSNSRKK
T1 sequence (P39900 106-470): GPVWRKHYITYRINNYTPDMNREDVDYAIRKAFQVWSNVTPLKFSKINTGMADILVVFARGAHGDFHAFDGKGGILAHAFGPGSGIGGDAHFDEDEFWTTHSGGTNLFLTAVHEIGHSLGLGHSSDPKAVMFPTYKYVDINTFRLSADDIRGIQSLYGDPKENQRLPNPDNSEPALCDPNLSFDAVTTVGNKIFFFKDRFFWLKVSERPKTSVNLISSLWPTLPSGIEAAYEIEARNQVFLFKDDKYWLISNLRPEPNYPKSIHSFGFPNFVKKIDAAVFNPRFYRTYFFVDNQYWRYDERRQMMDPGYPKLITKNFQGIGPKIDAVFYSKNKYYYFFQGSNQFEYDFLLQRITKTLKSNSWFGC
MMP-8h, sequence (P22894 101-467): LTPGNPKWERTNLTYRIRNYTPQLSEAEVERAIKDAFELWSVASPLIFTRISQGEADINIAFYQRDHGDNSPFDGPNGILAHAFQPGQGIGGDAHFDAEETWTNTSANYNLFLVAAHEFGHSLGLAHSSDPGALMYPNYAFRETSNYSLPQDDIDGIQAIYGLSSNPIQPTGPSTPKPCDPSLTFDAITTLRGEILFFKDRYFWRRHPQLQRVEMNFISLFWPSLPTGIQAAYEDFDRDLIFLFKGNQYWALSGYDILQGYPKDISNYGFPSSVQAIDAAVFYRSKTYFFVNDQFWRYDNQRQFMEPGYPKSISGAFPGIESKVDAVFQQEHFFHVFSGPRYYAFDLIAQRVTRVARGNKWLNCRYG
MMP-3h, sequence (P08254 100-477): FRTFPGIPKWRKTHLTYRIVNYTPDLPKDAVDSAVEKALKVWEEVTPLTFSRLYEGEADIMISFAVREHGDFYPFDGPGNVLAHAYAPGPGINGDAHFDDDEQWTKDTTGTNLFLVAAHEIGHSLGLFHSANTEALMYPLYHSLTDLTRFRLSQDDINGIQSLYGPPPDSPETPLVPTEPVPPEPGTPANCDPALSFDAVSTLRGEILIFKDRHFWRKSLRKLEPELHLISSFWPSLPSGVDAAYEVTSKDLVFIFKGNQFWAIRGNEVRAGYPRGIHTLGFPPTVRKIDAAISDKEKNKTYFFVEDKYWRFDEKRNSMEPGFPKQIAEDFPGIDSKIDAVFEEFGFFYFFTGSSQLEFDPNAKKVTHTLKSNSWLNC
MMP-10h, sequence (P09238 99-476): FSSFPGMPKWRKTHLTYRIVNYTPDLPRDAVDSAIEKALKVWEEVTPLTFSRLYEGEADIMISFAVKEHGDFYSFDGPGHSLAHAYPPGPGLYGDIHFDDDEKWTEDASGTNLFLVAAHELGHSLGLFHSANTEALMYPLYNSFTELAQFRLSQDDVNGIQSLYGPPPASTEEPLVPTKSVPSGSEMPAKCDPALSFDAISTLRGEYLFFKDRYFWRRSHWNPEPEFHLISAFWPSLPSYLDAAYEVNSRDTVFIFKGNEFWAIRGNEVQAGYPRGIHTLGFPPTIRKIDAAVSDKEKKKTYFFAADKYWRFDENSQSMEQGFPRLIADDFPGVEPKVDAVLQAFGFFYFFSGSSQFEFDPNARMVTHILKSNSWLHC
MMP-1h, sequence (P03956 100-469): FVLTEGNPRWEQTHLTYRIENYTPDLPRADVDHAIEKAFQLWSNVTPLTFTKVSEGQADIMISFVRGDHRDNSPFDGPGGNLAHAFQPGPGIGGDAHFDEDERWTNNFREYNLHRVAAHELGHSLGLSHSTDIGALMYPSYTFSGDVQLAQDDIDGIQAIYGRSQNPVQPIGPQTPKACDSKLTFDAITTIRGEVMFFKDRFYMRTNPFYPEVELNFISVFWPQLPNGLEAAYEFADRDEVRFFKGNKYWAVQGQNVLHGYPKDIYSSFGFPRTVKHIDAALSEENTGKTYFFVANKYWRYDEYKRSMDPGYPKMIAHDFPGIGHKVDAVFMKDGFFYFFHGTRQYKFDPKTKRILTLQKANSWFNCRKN
MMP-9h, sequence (P14780 94-707): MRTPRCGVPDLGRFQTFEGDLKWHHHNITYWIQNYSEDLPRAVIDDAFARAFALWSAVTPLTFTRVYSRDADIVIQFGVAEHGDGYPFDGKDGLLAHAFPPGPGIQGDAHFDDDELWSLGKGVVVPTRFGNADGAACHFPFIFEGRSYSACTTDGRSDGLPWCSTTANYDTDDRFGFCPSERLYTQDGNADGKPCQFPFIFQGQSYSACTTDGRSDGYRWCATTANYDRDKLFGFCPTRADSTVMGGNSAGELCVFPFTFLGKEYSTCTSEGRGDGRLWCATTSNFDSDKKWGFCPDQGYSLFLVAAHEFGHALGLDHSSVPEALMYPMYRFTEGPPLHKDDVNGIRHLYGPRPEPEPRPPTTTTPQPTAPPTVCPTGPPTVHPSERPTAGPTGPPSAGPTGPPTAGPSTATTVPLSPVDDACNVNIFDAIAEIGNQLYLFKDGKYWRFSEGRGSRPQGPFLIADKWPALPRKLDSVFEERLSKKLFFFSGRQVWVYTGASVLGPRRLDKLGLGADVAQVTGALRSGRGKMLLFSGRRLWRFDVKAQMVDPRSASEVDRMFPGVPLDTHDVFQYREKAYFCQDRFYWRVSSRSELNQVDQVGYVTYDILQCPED

NC(=O)[C@H](CCC(=O)O)NC(=O)[C@H](CCC(=O)O)NC(=O)CCc1cc(-c2ccc(-c3cccc(Cl)c3)cc2)no1 [Compound 3, (S)-5-amino-4-((S)-4-carboxy-2-(3-(3-(3′-chlorobiphenyl-4-yl)isoxazol-5-yl)propanamido)butanamido)-5-oxopentanoic acid]
Ki ([1]; read-out: Ki MMP-9h): 0.565 µM | Ki ([2]; read-out: Ki MMP-3h): 0.062 µM | Ki ([3]; read-out: Ki MMP-2h): 0.076 µM | inhibitory activity toward MMPs (in words) [4]: quite a powerful inhibitor of MMPs 2, 3, 10, 12 and 13 | Ki ([5]; read-out: Ki MMP-13h): 0.04 µM | Ki ([6]; read-out: Ki MMP-7h): > 1 µM | Ki ([7]; read-out: Ki MMP-14h): > 1 µM | Ki ([8]; read-out: Ki MMP-8h): 0.181 µM | Ki ([9]; read-out: Ki MMP-10h): 0.047 µM | Ki ([10]; read-out: Ki MMP-1h): > 10 µM

NC(=O)[C@H](CCC(=O)O)NC(=O)[C@H](CCC(=O)O)NC(=O)[C@H](Cc1cc(-c2ccc(-c3cccc(Cl)c3)cc2)no1)CP(=O)(O)c1ccc(Br)cc1 [RXP470, reference compound]
Ki ([1]; read-out: Ki MMP-9h): 0.85 µM | Ki ([2]; read-out: Ki MMP-3h): 0.058 µM | Ki ([3]; read-out: Ki MMP-2h): 0.072 µM | Ki ([5]; read-out: Ki MMP-13h): 0.013 µM | Ki ([7]; read-out: Ki MMP-14h): 0.08 µM | Ki [11]: 0.0004 µM | potency toward MMPs 1, 2, 3, 7, 8, 9, 11, 13 and 14 compared with MMP-12 [12]: two to three orders of magnitude less powerful | Ki ([8]; read-out: Ki MMP-8h): 0.077 µM | Ki [13]: 0.0002 µM | Ki ([9]; read-out: Ki MMP-10h): 0.0083 µM

NC(=O)[C@H](CCC(=O)O)NC(=O)[C@H](CCC(=O)O)NC(=O)CCc1ccc(-c2ccccc2)cc1 [Compound 40, (S)-5-amino-4-((S)-2-(3-(biphenyl-4-yl)propanamido)-4-carboxybutanamido)-5-oxopentanoic acid]
Ki [1]: > 1 µM | Ki [2]: > 5 µM | Ki [3]: 0.445 µM | Ki [5]: 0.689 µM | Ki [6]: > 10 µM | Ki [7]: > 5 µM | Ki [8]: 0.226 µM | by-product resulting from the compound ([14]; LC-MS and MS/MS): No by-product | amount detected in intact form ([14]; LC-MS, initial solution 10 nM): 50 fmol | loss of the starting material ([14]; attributed to nonspecific association with the eppendorf wall): 50% | Ki [9]: > 1 µM | Ki [10]: > 100 µM

NC(=O)[C@H](CCC(=O)O)NC(=O)[C@H](CCC(=O)O)NC(=O)CCc1cn(-c2ccccc2)nn1 [Compound 24, (S)-5-amino-4-((S)-4-carboxy-2-(3-(1-phenyl-1H-1,2,3-triazol-4-yl)propanamido)butanamido)-5-oxopentanoic acid]
Ki ([1]; read-out: Ki MMP-9h): > 1 µM | Ki ([2]; read-out: Ki MMP-3h): > 1 µM | Ki ([3]; read-out: Ki MMP-2h): > 5 µM | inhibitory activity toward MMPs (in words) [4]: do not have any inhibitory activity | Ki ([5]; read-out: Ki MMP-13h): > 5 µM | Ki ([7]; read-out: Ki MMP-14h): > 5 µM | Ki ([8]; read-out: Ki MMP-8h): > 1 µM | Ki [13]: > 1 µM | Ki ([9]; read-out: Ki MMP-10h): > 1 µM

NC(=O)CC[C@H](NC(=O)[C@H](CCC(=O)O)NC(=O)CCc1ccc(-c2cc(-c3ccccc3)cs2)cc1)C(N)=O [Compound 99, (S)-5-((S)-1,5-diamino-1,5-dioxopentan-2-ylamino)-5-oxo-4-(3-(4-(4-phenylthiophen-2-yl)phenyl)propanamido)pentanoic acid]
Ki ([1]; read-out: Ki MMP-9h): > 5 µM | Ki ([2]; read-out: Ki MMP-3h): > 10 µM | Ki ([3]; read-out: Ki MMP-2h): > 1 µM | selectivity factor F = Ki MMP-x/Ki MMP-12 [4]: > 100 | Ki ([5]; read-out: Ki MMP-13h): 0.522 µM | Ki ([6]; read-out: Ki MMP-7h): > 10 µM | Ki ([7]; read-out: Ki MMP-14h): > 1 µM | Ki ([8]; read-out: Ki MMP-8h): > 1 µM | Ki [13]: 0.0054 µM | Ki ([9]; read-out: Ki MMP-10h): > 1 µM | Ki ([10]; read-out: Ki MMP-1h): > 10 µM

NC(=O)[C@H](CCC(=O)O)NC(=O)[C@H](CCC(=O)O)NC(=O)[C@@H](CC(=O)O)Cc1ccc(-c2cc(-c3ccccc3)cs2)cc1 [95 bis, (S)-5-amino-4-((S)-4-carboxy-2-((R)-3-carboxy-2-(4-(4-phenylthiophen-2-yl)benzyl)propanamido)butanamido)-5-oxopentanoic acid]
Selectivity factor/MMP12, MMP-9h ([1]; Ki MMP-9h/Ki MMP-12): 3333 | Ki ([1]; read-out: Ki MMP-9h): > 1 µM | Selectivity factor/MMP12, MMP-3h ([2]; Ki MMP-3h/Ki MMP-12): 1930 | Ki ([2]; read-out: Ki MMP-3h): 0.579 µM | Selectivity factor/MMP12, MMP-2h ([3]; Ki MMP-2h/Ki MMP-12): 1340 | Ki ([3]; read-out: Ki MMP-2h): 0.401 µM | selectivity factor F = Ki MMP-x/Ki MMP-12 [4]: > 100 | Selectivity factor/MMP12, MMP-13h ([5]; Ki MMP-13h/Ki MMP-12): 660 | Ki ([5]; read-out: Ki MMP-13h): 0.198 µM | Selectivity factor/MMP12, MMP-7h ([6]; Ki MMP-7h/Ki MMP-12): 3333 | Ki ([6]; read-out: Ki MMP-7h): > 1 µM | Selectivity factor/MMP12, MMP-14h ([7]; Ki MMP-14h/Ki MMP-12): 395 | Ki ([7]; read-out: Ki MMP-14h): 0.118 µM | Selectivity factor/MMP12, MMP-8h ([8]; Ki MMP-8h/Ki MMP-12): 1730 | Ki ([8]; read-out: Ki MMP-8h): 0.52 µM | improvement of affinity with respect to MMP-12 compared with compound 95 (factor) [13]: 6 | Selectivity factor/MMP12, MMP-12h ([13]; Ki MMP-12h/Ki MMP-12): 1 | Ki [13]: 0.0003 µM | Selectivity factor/MMP12, MMP-10h ([9]; Ki MMP-10h/Ki MMP-12): 270 | Ki ([9]; read-out: Ki MMP-10h): 0.08 µM | Selectivity factor/MMP12, MMP-1h ([10]; Ki MMP-1h/Ki MMP-12): 3333 | Ki ([10]; read-out: Ki MMP-1h): > 1 µM

NC(=O)[C@H](CC(=O)O)NC(=O)[C@H](CCC(=O)O)NC(=O)CCc1ccc(-c2cc(-c3ccccc3)cs2)cc1 [Compound 101, (S)-5-((S)-1-amino-3-carboxy-1-oxopropan-2-ylamino)-5-oxo-4-(3-(4-(4-phenylthiophen-2-yl)phenyl)propanamido)pentanoic acid]
Ki ([1]; read-out: Ki MMP-9h): > 5 µM | Ki ([2]; read-out: Ki MMP-3h): > 5 µM | Ki ([3]; read-out: Ki MMP-2h): > 1 µM | selectivity factor F = Ki MMP-x/Ki MMP-12 [4]: > 100 | Ki ([5]; read-out: Ki MMP-13h): 0.933 µM | Ki ([6]; read-out: Ki MMP-7h): > 100 µM | Ki ([7]; read-out: Ki MMP-14h): > 1 µM | Ki ([8]; read-out: Ki MMP-8h): 0.379 µM | Ki [13]: 0.00256 µM | Ki ([9]; read-out: Ki MMP-10h): 0.571 µM | Ki ([10]; read-out: Ki MMP-1h): > 100 µM

NC(=O)[C@H](CCC(=O)O)NC(=O)[C@H](CCC(=O)O)NC(=O)CCc1noc(-c2ccccc2)n1 [Compound 26, (S)-5-amino-4-((S)-4-carboxy-2-(3-(5-phenyl-1,2,4-oxadiazol-3-yl)propanamido)butanamido)-5-oxopentanoic acid]
Ki ([1]; read-out: Ki MMP-9h): > 1 µM | Ki ([2]; read-out: Ki MMP-3h): > 5 µM | Ki ([3]; read-out: Ki MMP-2h): > 5 µM | inhibitory activity toward MMPs (in words) [4]: do not have any inhibitory activity | Ki ([5]; read-out: Ki MMP-13h): > 1 µM | Ki ([7]; read-out: Ki MMP-14h): > 5 µM | Ki ([8]; read-out: Ki MMP-8h): > 5 µM | Ki [13]: > 1 µM | Ki ([9]; read-out: Ki MMP-10h): > 5 µM

Cc1ccc(-c2ccc(CCC(=O)N[C@@H](CCC(=O)O)C(=O)N[C@@H](CCC(=O)O)C(N)=O)cc2)s1 [Compound 91, (S)-5-amino-4-((S)-4-carboxy-2-(3-(4-(5-methylthiophen-2-yl)phenyl)propanamido)butanamido)-5-oxopentanoic acid]
Ki ([1]; read-out: Ki MMP-9h): 0.242 µM | Ki ([2]; read-out: Ki MMP-3h): > 1 µM | Ki ([3]; read-out: Ki MMP-2h): 0.097 µM | Ki ([5]; read-out: Ki MMP-13h): 0.564 µM | Ki ([7]; read-out: Ki MMP-14h): > 1 µM | Ki ([8]; read-out: Ki MMP-8h): 0.0103 µM | Ki [13]: 0.00184 µM | Ki ([9]; read-out: Ki MMP-10h): 0.353 µM | concentration at 5 min [15]: 1 µM

NC(=O)[C@H](CCCC(=O)O)NC(=O)[C@H](CCC(=O)O)NC(=O)CCc1ccc(-c2cc(-c3ccccc3)cs2)cc1 [Compound 103, (S)-6-amino-5-((S)-4-carboxy-2-(3-(4-(4-phenylthiophen-2-yl)phenyl)propanamido)butanamido)-6-oxohexanoic acid]
Ki ([1]; read-out: Ki MMP-9h): > 5 µM | Ki ([2]; read-out: Ki MMP-3h): > 5 µM | Ki ([3]; read-out: Ki MMP-2h): > 1 µM | selectivity factor F = Ki MMP-x/Ki MMP-12 [4]: > 100 | Ki ([5]; read-out: Ki MMP-13h): 0.563 µM | Ki ([6]; read-out: Ki MMP-7h): > 5 µM | Ki ([7]; read-out: Ki MMP-14h): > 1 µM | Ki ([8]; read-out: Ki MMP-8h): 0.656 µM | Ki [13]: 0.0029 µM | Ki ([9]; read-out: Ki MMP-10h): 0.845 µM | Ki ([10]; read-out: Ki MMP-1h): > 10 µM
